Source: patent US20240262795A1, “PYRAZINE COMPOUNDS AS INHIBITORS OF FLT3” (Biomea Fusion, Inc., priority 2021, published 2024)

Legend:
[1] = test system: MOLM-13; experiment: Proliferation inhibition, CellTiter-Glo, MOLM-13; format: cell-based, human; details: Homo sapiens, 96 h; MOLM-13 cells, IC50 (4 days), CellTiter-Glo; read-out: MOLM-13 IC50
How it was run: (§1)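 About 10,000 cells per well in RPMI-1640 with 10% FBS. Compounds added 2 h after seeding at eight concentrations in duplicate (0.2% DMSO as 100% proliferation), then incubated ~96 h at 37° C, 5% CO2. ATP measured by CellTiter-Glo luminescence; IC50 from four-parameter logistic fit.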

[2] = test system: MV-4-11; experiment: Proliferation inhibition, CellTiter-Glo, MV-4-11; format: cell-based, human; details: Homo sapiens, MV4-11, 96 h; MV-4:11 cells, IC50 (4 days), CellTiter-Glo; read-out: MV-4:11 IC50
How it was run: as §1

Row | Structure (SMILES) | IC50 [1] | IC50 [2]
1 | CCc1nc(C(N)=O)c(Nc2cccc(CCNC(=O)CN(C)C(=O)/C=C/CN3CCC3)c2)nc1N(C)CC [Compound 516A, (E)-3-((3-(2-(2-(4-(azetidin-1-yl)-N-methylbut-2-enamido)acetamido)ethyl)phenyl)amino)-6-ethyl-5-(ethyl(methyl)amino) pyrazine-2-carboxamide] | < 1 nM | < 1 nM
2 | CCc1nc(C(N)=O)c(Nc2ccnc(CCNC(=O)[C@H](C)N(C)C(=O)/C=C/CN(C)C)c2)nc1C1CC1 [Compound 310, (S,E)-5-cyclopropyl-3-((2-(2-(2-(4-(dimethylamino)-N-methylbut-2-enamido)propanamido)ethyl)pyridin-4-yl)amino)-6-ethylpyrazine-2-carboxamide] | 1 to 10 nM | < 1 nM
3 | CCc1nc(C(N)=O)c(Nc2cccc(CCNC(=O)CN(C)C(=O)/C=C/CN(C)C)c2)nc1C1CC1 [Compound 219, (E)-5-cyclopropyl-3-((3-(2-(2-(4-(dimethylamino)-N-methylbut-2-enamido)acetamido)ethyl)phenyl)amino)-6-ethylpyrazine-2-carboxamide] | < 1 nM | < 1 nM
4 | Cc1nc(C(N)=O)c(Nc2cccc(CCNC(=O)[C@H](C)N(C)C(=O)/C=C/CN(C)C)c2)nc1N(C)C(C)C [Compound 232, (S, E)-3-((3-(2-(2-(4-(dimethylamino)-N-methylbut-2-enamido)propanamido)ethyl)phenyl)amino)-5-(isopropyl (methyl)amino)-6-methylpyrazine-2-carboxamide] | 1 to 10 nM | < 1 nM
5 | CCc1nc(C(N)=O)c(Nc2cccc([C@@H](C)CNC(=O)CN(C)C(=O)/C=C/CN(C)C)c2)nc1C1CC1 [Compound 504, (R,E)-5-cyclopropyl-3-((3-(1-(2-(4-(dimethylamino)-N-methylbut-2-enamido)acetamido)propan-2-yl)phenyl)amino)-6-ethylpyrazine-2-carboxamide] | < 1 nM | < 1 nM
6 | CCc1nc(Nc2cccc([C@@H](C)CNC(=O)CN(C)C(=O)/C=C/CN3CCC3)c2)c(C(N)=O)nc1CC [Compound 508, (R, E)-3-((3-(1-(2-(4-(azetidin-1-yl)-N-methylbut-2-enamido)acetamido)propan-2-yl)phenyl)amino)-5,6-diethylpyrazine-2-carboxamide] | > 500 nM | > 500 nM
7 | CCc1nc(C(N)=O)c(Nc2cccc([C@@H](C)CNC(=O)CN(C)C(=O)/C=C/CN3CCC3)c2)nc1N(C)CC [Compound 518, (R,E)-3-((3-(1-(2-(4-(azetidin-1-yl)-N-methylbut-2-enamido)acetamido)propan-2-yl)phenyl)amino)-6-ethyl-5-(ethyl(methyl)amino)pyrazine-2-carboxamide] | < 1 nM | < 1 nM
8 | CCc1nc(C(N)=O)c(Nc2ccc(N3CCC(N4CCN(C)CC4)CC3)c(OC)c2)nc1NC1CCOCC1 [Gilteritinib, gilteritinib, reference compound] | 1 to 10 nM | 1 to 10 nM
9 | CCc1nc(C(N)=O)c(Nc2cccc([C@@H](C)CNC(=O)CN(C)C(=O)/C=C/CN3CCC3)c2)nc1C1CC1 [Compound 506, (R,E)-3-((3-(1-(2-(4-(azetidin-1-yl)-N-methylbut-2-enamido)acetamido)propan-2-yl)phenyl)amino)-5-cyclopropyl-6-ethylpyrazine-2-carboxamide] | < 1 nM | 1 to 10 nM
10 | CCOc1nc(Nc2cccc(CCNC(=O)CN(C)C(=O)/C=C/CN3CCC3)c2)c(C(N)=O)nc1CC [Compound 602, (E)-3-((3-(2-(2-(4-(azetidin-1-yl)-N-methylbut-2-enamido)acetamido)ethyl)phenyl)amino)-5-ethoxy-6-ethylpyrazine-2-carboxamide] | 1 to 10 nM | < 1 nM
11 | CCc1nc(C(N)=O)c(Nc2ccnc(CCNC(=O)[C@H](C)N(C)C(=O)/C=C/CN(C)C)c2)nc1N(C)C(C)C [Compound 605, (S, E)-3-((2-(2-(2-(4-(dimethylamino)-N-methylbut-2-enamido)propanamido)ethyl)pyridin-4-yl)amino)-6-ethyl-5-(isopropyl (methyl)amino) pyrazine-2-carboxamide] | < 1 nM | < 1 nM
12 | CCc1nc(C(N)=O)c(Nc2cccc(CCNC(=O)CN(C)C(=O)/C=C/CN3CCC3)c2)nc1OC(C)C [Compound 603, (E)-3-((3-(2-(2-(4-(azetidin-1-yl)-N-methylbut-2-enamido)acetamido)ethyl)phenyl)amino)-6-ethyl-5-isopropoxypyrazine-2-carboxamide] | 1 to 10 nM | < 1 nM
13 | CCc1nc(C(N)=O)c(Nc2cccc(CCNC(=O)[C@H](C)N(C)C(=O)/C=C/CN(C)C)c2)nc1N(C)C(C)C [Compound 204, (S,E)-3-((3-(2-(2-(4-(dimethylamino)-N-methylbut-2-enamido)propanamido)ethyl)phenyl)amino)-6-ethyl-5-(isopropyl(methyl)amino)pyrazine-2-carboxamide] | < 1 nM | < 1 nM
14 | CCc1nc(C(N)=O)c(Nc2cccc(CCNC(=O)[C@H](C)N(C)C(=O)/C=C/CN(C)C)c2)nc1NC(C)C [Compound 205, (S,E)-3-((3-(2-(2-(4-(dimethylamino)-N-methylbut-2-enamido)propanamido)ethyl)phenyl)amino)-6-ethyl-5-(isopropylamino)pyrazine-2-carboxamide] | < 1 nM | < 1 nM
15 | CCCc1nc(Nc2cccc([C@@H](C)CNC(=O)CN(C)C(=O)/C=C/CN3CCC3)c2)c(C(N)=O)nc1CC [Compound 507, (R,E)-3-((3-(1-(2-(4-(azetidin-1-yl)-N-methylbut-2-enamido)acetamido)propan-2-yl)phenyl)amino)-6-ethyl-5-propylpyrazine-2-carboxamide] | < 1 nM | 1 to 10 nM
16 | CCc1nc(C(N)=O)c(Nc2cccc(CCNC(=O)CN(C)C(=O)/C=C/CN(C)C)c2)nc1N(C)CC [Compound 252, (E)-3-((3-(2-(2-(4-(dimethylamino)-N-methylbut-2-enamido)acetamido)ethyl)phenyl)amino)-6-ethyl-5-(ethyl (methyl)amino) pyrazine-2-carboxamide] | < 1 nM | < 1 nM
17 | CCc1nc(C(N)=O)c(Nc2cc(F)cc(CCNC(=O)CN(C)C(=O)/C=C/CN3CCC3)c2)nc1C1CC1 [Compound 516, (E)-3-((3-(2-(2-(4-(azetidin-1-yl)-N-methylbut-2-enamido)acetamido)ethyl)-5-fluorophenyl)amino)-5-cyclopropyl-6-ethylpyrazine-2-carboxamide] | 1 to 10 nM | 1 to 10 nM
18 | Cc1nc(C(N)=O)c(Nc2cccc(CCNC(=O)CN(C)C(=O)/C=C/CN(C)C)c2)nc1N(C)C(C)C [Compound 250, (E)-3-((3-(2-(2-(4-(dimethylamino)-N-methylbut-2-enamido)acetamido)ethyl)phenyl)amino)-5-(isopropyl(methyl)amino)-6-methylpyrazine-2-carboxamide] | 1 to 10 nM | < 1 nM
19 | CCc1nc(C(N)=O)c(Nc2cccc(CCNC(=O)[C@H](C)N(C)C(=O)/C=C/CNC)c2)nc1N(C)C(C)C [Compound 307, (S,E)-6-ethyl-5-(isopropyl(methyl)amino)-3-((3-(2-(2-(N-methyl-4-(methylamino)but-2-enamido)propanamido)ethyl)phenyl)amino)pyrazine-2-carboxamide] | < 1 nM | < 1 nM
